Assay results from patent US20230348424A1, “HETEROCYCLIC COMPOUNDS AND METHODS OF USE” (Schrödinger, Inc., priority 2022, published 2023).

Columns and labels:
[1] = molecular target: SOS1:KRAS (G12C) interaction (Homo sapiens (Human), UniProt Q07889); assay: SOS1 KRas(G12C) FRET Assay; assay type: binding; details: 0.5 nM His10-SOS1 (res. 564-1049), 2.5 nM GST-KRAS G12C (res. 1-169), 2 hrs at RT
Method in brief: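 GST-KRAS G12C (res. 1-169) at 2.5 nM and His10-SOS1 (res. 564-1049) at 0.5 nM, final, in PBS with 0.1% BSA, 5 mM MgCl2, 100 mM KF, 5 mM DTT and 0.5% DMSO. After 2 h at RT, FRET read at 665/615 nm and normalized to DMSO and no-SOS1 controls. IC50 by non-linear regression.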

[2] = molecular target: human SOS1 (Homo sapiens (Human), UniProt Q07889); assay: Surface Plasmon Resonance (SPR) SOS1 Binding Assay; details: biotinylated SOS1 (res. 564-1049), Biacore 8K, 25° C., kinetic or steady state fit, 1:1 binding; read-out: hSOS1 KD
Method in brief: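 Biotinylated Avi-tagged human SOS1 (res. 564-1049) captured on streptavidin chip (~3,000 RU); compounds injected 60 s, dissociation 600 s, at 25° C in Tris pH 8.0 buffer with 5% DMSO. Reference- and blank-subtracted; KD from kinetic or steady-state 1:1 binding fit.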

human SOS1, sequence (Q07889 564-1049): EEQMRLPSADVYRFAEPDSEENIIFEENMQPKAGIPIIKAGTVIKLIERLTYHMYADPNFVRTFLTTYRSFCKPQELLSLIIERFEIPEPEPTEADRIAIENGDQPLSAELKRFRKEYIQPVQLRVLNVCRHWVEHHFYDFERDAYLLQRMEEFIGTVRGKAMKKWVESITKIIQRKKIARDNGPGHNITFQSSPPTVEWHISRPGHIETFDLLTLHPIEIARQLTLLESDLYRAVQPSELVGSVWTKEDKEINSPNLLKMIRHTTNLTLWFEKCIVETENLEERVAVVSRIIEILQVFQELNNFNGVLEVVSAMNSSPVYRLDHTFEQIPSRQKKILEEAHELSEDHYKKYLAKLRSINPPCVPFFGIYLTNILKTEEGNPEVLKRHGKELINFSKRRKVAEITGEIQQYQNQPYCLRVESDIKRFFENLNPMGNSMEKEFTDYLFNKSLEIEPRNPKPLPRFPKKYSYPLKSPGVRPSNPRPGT
SOS1:KRAS (G12C) interaction, sequence (Q07889 564-1049, stated change not applied): as the sequence (Q07889 564-1049) above

Row | SMILES | IC50 [1] | Kd [2]
1 | C[C@@H](NC(=O)c1cn(C23CCC(CC2)C3)c(=O)cc1N[C@H]1[C@@H]2CN(C)C[C@@H]21)c1cccc(C(F)F)c1F [Example 132, 1-(bicyclo[2.2.1]heptan-1-yl)-N-((R)-1-(3-(difluoromethyl)-2-fluorophenyl)ethyl)-4-(((1R,5S,6s)-3-methyl-3-azabicyclo[3.1.0]hexan-6-yl)amino)-6-oxo-1,6-dihydropyridine-3-carboxamide] | 10.3 nM | 8 nM
2 | C[C@@H](NC(=O)c1cn(C23CC(F)(C2)C3)c(=O)cc1N[C@@H]1CCN(C)C[C@@H]1F)c1cccc(C(F)F)c1F [Example 143, N-((R)-1-(3-(difluoromethyl)-2-fluorophenyl)ethyl)-4-(((3S,4R)-3-fluoro-1-methylpiperidin-4-yl)amino)-1-(3-fluorobicyclo[1.1.1]pentan-1-yl)-6-oxo-1,6-dihydropyridine-3-carboxamide] | 3.8 nM | 3 nM
3 | C[C@@H](NC(=O)c1cn(C23CC(C(F)(F)F)(C2)C3)c(=O)cc1N[C@H]1[C@@H]2CN(C)C[C@@H]21)c1cccc(C(F)F)c1F [Example 106, N-((R)-1-(3-(difluoromethyl)-2-fluorophenyl)ethyl)-4-(((1R,5S,6s)-3-methyl-3-azabicyclo[3.1.0]hexan-6-yl)amino)-6-oxo-1-(3-(trifluoromethyl)bicyclo[1. 1.1]pentan-1-yl)-1,6-dihydropyridine-3-carboxamide] | 16.8 nM | 19 nM
4 | C[C@@H](NC(=O)c1cn([C@]2(C)CCOC2)c(=O)cc1NC1CCN(C)CC1)c1cccc(C(F)F)c1F (single isomer, unassigned) [Example 48] | 25.6 nM | 7 nM
5 | C[C@@H](NC(=O)c1cn([C@H]2CC23CC3)c(=O)cc1N[C@H]1[C@@H]2CN(C)C[C@@H]21)c1cccc(C(F)F)c1F (single isomer, unassigned) [Example 115] | 14.1 nM | 6 nM
6 | C[C@@H](NC(=O)c1cn([C@H]2C[C@@H]2C(F)F)c(=O)cc1N[C@H]1[C@@H]2CN(C)C[C@@H]21)c1cccc(C(F)F)c1F [Example 113, N-((R)-1-(3-(difluoromethyl)-2-fluorophenyl)ethyl)-1-((1S,2S)-2-(difluoromethyl)cyclopropyl)-4-(((1R,5S,6s)-3-methyl-3-azabicyclo[3.1.0]hexan-6-yl)amino)-6-oxo-1,6-dihydropyridine-3-carboxamide] | 10.5 nM | 6 nM
7 | Cc1c([C@@H](C)NC(=O)c2cn(C3CCOCC3)c(=O)cc2NC2CCOCC2)cccc1C(F)(F)F [Example 42, (R)-N-(1-(2-methyl-3-(trifluoromethyl)phenyl)ethyl)-6-oxo-1-(tetrahydro-2H-pyran-4-yl)-4-((tetrahydro-2H-pyran-4-yl)amino)-1,6-dihydropyridine-3-carboxamide] | 553 nM | 186 nM
8 | C[C@@H](NC(=O)c1cn(C2(C(F)F)CC2)c(=O)cc1N[C@@H]1CCN(C)C[C@@H]1F)c1cccc(C(F)F)c1F (single isomer, unassigned) [Example 63] | 11.3 nM | 7 nM
9 | C[C@@H](NC(=O)c1cn([C@@H]2C[C@H]2C(F)(F)F)c(=O)cc1N[C@H]1[C@@H]2CN(C)C[C@@H]21)c1cccc(C(F)F)c1F (single isomer, unassigned) [Example 112] | 13.6 nM | 6 nM
10 | C[C@@H](NC(=O)c1cn(C2(C(F)F)CC2)c(=O)cc1N[C@H](C)c1cncn1C)c1cccc(C(F)F)c1F [Example 88, N-((R)-1-(3-(difluoromethyl)-2-fluorophenyl)ethyl)-1(1-(difluoromethyl)cyclopropyl)-4(((R)-1-(1-methyl-1H-imidazol-5-yl)ethyl)amino)-6-oxo-1,6-dihydropyridine-3-carboxamide] | 87.3 nM | 96 nM
11 | C[C@@H](NC(=O)c1cn([C@H]2[C@H](C)C2(F)F)c(=O)cc1N[C@H]1[C@@H]2CN(C)C[C@@H]21)c1cccc(C(F)F)c1F (single isomer, unassigned) [Example 110] | 23.8 nM | 12 nM
12 | C[C@@H](NC(=O)c1cn([C@@H]2CCC2(F)F)c(=O)cc1NCC1(F)CN(C)C1)c1cccc(C(F)F)c1F [Example 147, 1-((R)-2,2-difluorocyclobutyl)-N-((R)-1-(3-(difluoromethyl)-2-fluorophenyl)ethyl)-4-(((3-fluoro-1-methylazetidin-3-yl)methyl)amino)-6-oxo-1,6-dihydropyridine-3-carboxamide] | 45 nM | 73 nM
13 | C[C@@H](NC(=O)c1cn(C(C)(C)C2CC2)c(=O)cc1N[C@H]1[C@@H]2CN(C)C[C@@H]21)c1cccc(C(F)F)c1F [Example 108, 1-(2-cyclopropylpropan-2-yl)-N-((R)-1-(3-(difluoromethyl)-2-fluorophenyl)ethyl)-4-(((1R,5S,6s)-3-methyl-3-azabicyclo[3.1.0]hexan-6-yl)amino)-6-oxo-1,6-dihydropyridine-3-carboxamide] | 147 nM | 343 nM
14 | Cc1c([C@@H](C)NC(=O)c2cn(C3CCOCC3)c(=O)cc2NC2CC3(C2)CN(C)C3)cccc1C(F)(F)F [Example 21, (R)-4-((2-methyl-2-azaspiro[3.3]heptan-6-yl)amino)-N-(1-(2-methyl-3-(trifluoromethyl)phenyl)ethyl)-6-oxo-1-(tetrahydro-2H-pyran-4-yl)-1,6-dihydropyridine-3-carboxamide] | 53.7 nM | 17 nM
15 | C[C@@H](NC(=O)c1cn(C2(C(F)F)CC2)c(=O)cc1N[C@H]1CN2CCC1CC2)c1cccc(C(F)F)c1F [Example 83, N-((R)-1-(3-(difluoromethyl)-2-fluorophenyl)ethyl)-1-(1-(difluoromethyl)cyclopropyl)-6-oxo-4-(((R)-quinuclidin-3-yl)amino)-1,6-dihydropyridine-3-carboxamide] | 25.7 nM | 20 nM
16 | C[C@@H](NC(=O)c1cn(C23CC(F)(C2)C3)c(=O)cc1NC1[C@@H]2CC[C@H]1CN(C)C2)c1cccc(C(F)F)c1F (stereo partly drawn) [Example 137, N-((R)-1-(3-(difluoromethyl)-2-fluorophenyl)ethyl)-1-(3-fluorobicyclo[1.1.1]pentan-1-yl)-4-(((1R,5S,8r)-3-methyl-3-azabicyclo[3.2.1]octan-8-yl)amino)-6-oxo-1,6-dihydropyridine-3-carboxamide] | 35.3 nM | 27 nM
17 | C[C@@H](NC(=O)c1cn(C2(C(F)F)CC2)c(=O)cc1NC[C@H]1CC2CCN1CC2)c1cccc(C(F)F)c1F [Example 86, N-((R)-1-(3-(difluoromethyl)-2-fluorophenyl)ethyl)-1-(1-(difluoromethyl)cyclopropyl)-6-oxo-4-((((R)-quinuclidin-2-yl)methyl)amino)-1,6-dihydropyridine-3-carboxamide] | 73.1 nM | 29 nM
18 | C[C@@H](NC(=O)c1cn(C2(C(F)F)CC2)c(=O)cc1N[C@@H]1CCN(C)C[C@H]1F)c1cccc(C(F)F)c1F (single isomer, unassigned) [Example 65] | 50.4 nM | 48 nM
19 | C[C@@H](NC(=O)c1cn(C23CC(F)(C2)C3)c(=O)cc1N[C@H]1[C@@H]2CN(C)C[C@@H]21)c1cccc(C(F)F)c1F [Example 102, N-((R)-1-(3-(difluoromethyl)-2-fluorophenyl)ethyl)-1-(3-fluorobicyclo[1.1.1]pentan-1-yl)-4-(((1R,5S,6s)-3-methyl-3-azabicyclo[3.1.0]hexan-6-yl)amino)-6-oxo-1,6-dihydropyridine-3-carboxamide] | 12.1 nM | 8 nM
20 | Cc1c([C@@H](C)NC(=O)c2cn(C3CCOCC3)c(=O)cc2NCc2cncn2C)cccc1C(F)(F)F [Example 10, (R)-4-(((1-methyl-1H-imidazol-5-yl)methyl)amino)-N-(1-(2-methyl-3-(trifluoromethyl)phenyl)ethyl)-6-oxo-1-(tetrahydro-2H-pyran-4-yl)-1,6-dihydropyridine-3-carboxamide] | 73 nM | 74 nM
21 | C[C@@H](NC(=O)c1cn([C@H]2C[C@@H]2C2CC2)c(=O)cc1N[C@H]1[C@@H]2CN(C)C[C@@H]21)c1cccc(C(F)F)c1F (single isomer, unassigned) [Example 72] | 9.7 nM | 3 nM
22 | C[C@@H](NC(=O)c1cn(C2(C(F)F)CC2)c(=O)cc1N[C@@H]1C[C@@H]2CN(C)C[C@@H]2C1)c1cccc(C(F)F)c1F (single isomer, unassigned) [Example 124] | 31.4 nM | 13 nM
23 | C[C@@H](NC(=O)c1cn(C2(C(F)F)CC2)c(=O)cc1NC1CCN(C)CC1)c1cccc(C(C)(F)F)c1F [Example 51, (R)-N-(1-(3-(1,1-difluoroethyl)-2-fluorophenyl)ethyl)-1-(1-(difluoromethyl)cyclopropyl)-4-((1-methylpiperidin-4-yl)amino)-6-oxo-1,6-dihydropyridine-3-carboxamide] | 18.5 nM | 8 nM
24 | C[C@@H](NC(=O)c1cn(C2(C(F)F)CC2)c(=O)cc1NC1CCN(C)CC1)c1cccc(C(F)F)c1F [Example 49, (R)-N-(1-(3-(difluoromethyl)-2-fluorophenyl)ethyl)-1-(1-(difluoromethyl)cyclopropyl)-4-((1-methylpiperidin-4-yl)amino)-6-oxo-1,6-dihydropyridine-3-carboxamide] | 13.5 nM | 3 nM
